Converted amounts (≈) assume the structure as drawn.
Legend:
[1] = test system: Enterobacteriaceae; assay: Inhibition of Beta-lactamase OXA-48 in Enterobacteriaceae assessed as potentiation of meropenem-induced antibacterial activity by CLSI based agar dilution method
[2] = test system: Enterobacteriaceae; assay: Inhibition of Beta-lactamase OXA-48 in Enterobacteriaceae assessed as potentiation of imipenem-induced antibacterial activity by CLSI based agar dilution method
[3] = test system: Enterobacteriaceae; assay: Inhibition of Beta-lactamase KPC in Enterobacteriaceae assessed as potentiation of meropenem-induced antibacterial activity by CLSI based agar dilution method
[4] = test system: Enterobacteriaceae; assay: Inhibition of Beta-lactamase KPC in Enterobacteriaceae assessed as potentiation of imipenem-induced antibacterial activity by CLSI based agar dilution method
[5] = test system: Enterobacteriaceae; assay: Inhibition of OXA-181 in Enterobacteriaceae assessed as potentiation of meropenem-induced antibacterial activity by CLSI based agar dilution method
[6] = test system: Enterobacteriaceae; assay: Inhibition of OXA-181 in Enterobacteriaceae assessed as potentiation of imipenem-induced antibacterial activity by CLSI based agar dilution method
[7] = Inhibition of NDM1 (unknown origin) using nitrocefin as substrate incubated for 10 mins by UV spectra analysis; parameters: species or system Bacteria
[8] = test system: Acinetobacter baumannii; assay: Inhibition of OXA-24/40 in Acinetobacter baumannii assessed as potentiation of imipenem-induced antibacterial activity by CLSI based broth microdilution method
[9] = test system: Acinetobacter baumannii; assay: Inhibition of OXA-24/40 in Acinetobacter baumannii assessed as potentiation of meropenem-induced antibacterial activity by CLSI based broth microdilution method
[10] = test system: Acinetobacter baumannii; assay: Inhibition of Acinetobacter baumannii OXA-24 by spectrophotometry relative to control; details: concentration not given here
[11] = test system: Beta-lactamase (Acinetobacter baumannii), Q8RLA6 [Y112A]; assay: Inhibition of Acinetobacter baumannii OXA-24 Y112A mutant by spectrophotometric method relative to control; details: concentration not given here
[12] = test system: Beta-lactamase (Acinetobacter baumannii), Q8RLA6 [Y112A,M223A]; assay: Inhibition of Acinetobacter baumannii OXA-24 Y112A/M223A mutant by spectrophotometric method relative to control; details: concentration not given here
[13] = Inhibition of Acinetobacter baumannii OXA-24 by spectrophotometric method
[14] = test system: Acinetobacter baumannii; assay: Antibacterial activity against Acinetobacter baumannii ATCC 17978 harboring OXA-23 infected in BALB/c mouse pneumonia model assessed as reduction in bacterial burden by measuring bacterial growth at 50 mg,kg, im after 22 hrs co-treatment with imipenem; format: functional
[15] = test system: Acinetobacter baumannii; assay: Antibacterial activity against Acinetobacter baumannii Ab1 clinical isolate harboring OXA-23 infected in BALB/c mouse pneumonia model assessed as reduction in bacterial burden by measuring bacterial growth at 50 mg,kg, im after 22 hrs co-treatment with imipenem; format: functional
[16] = test system: Acinetobacter baumannii; assay: Antibacterial activity against Acinetobacter baumannii ATCC 17978 harboring OXA-24/40 infected in BALB/c mouse pneumonia model assessed as reduction in bacterial burden by measuring bacterial growth at 50 mg,kg, im after 22 hrs co-treatment with imipenem; format: functional
[17] = test system: Acinetobacter baumannii; assay: Antibacterial activity against Acinetobacter baumannii JC12/04 clinical isolate harboring OXA-24/40 infected in BALB/c mouse pneumonia model assessed as reduction in bacterial burden by measuring bacterial growth at 50 mg,kg, im after 22 hrs co-treatment with imipenem; format: functional
[18] = biological target: Beta-lactamase TEM (Escherichia coli, UniProt P62593); assay: Inhibition of Escherichia coli TEM-1 beta-lactamase
[19] = test system: Escherichia coli; assay: Antibacterial activity against Escherichia coli by CLSI based microdilution method
[20] = test system: Klebsiella pneumoniae; assay: Antibacterial activity against Klebsiella pneumoniae by CLSI based microdilution method
[21] = test system: Pseudomonas aeruginosa; assay: Antibacterial activity against Pseudomonas aeruginosa haboring KPC-2 assessed as reduction in microbial growth by CLSI based broth microdilution method; format: functional
[22] = test system: Pseudomonas aeruginosa; assay: Antibacterial activity against Pseudomonas aeruginosa haboring AmpC assessed as reduction in microbial growth by CLSI based broth microdilution method; format: functional
[23] = test system: Pseudomonas aeruginosa; assay: Antibacterial activity against Pseudomonas aeruginosa haboring OXA-24/40 assessed as reduction in microbial growth by CLSI based broth microdilution method; format: functional
[24] = test system: Pseudomonas aeruginosa; assay: Inhibition of Pseudomonas aeruginosa KPC-2 assessed as potentiation of piperacillin-induced antibacterial activity at 4 ug/ml by CLSI based broth microdilution method (reference value: > […] ug/ml)
[25] = test system: Pseudomonas aeruginosa; assay: Inhibition of Pseudomonas aeruginosa AmpC assessed as potentiation of piperacillin-induced antibacterial activity at 4 ug/ml by CLSI based broth microdilution method (reference value: > […] ug/ml)
[26] = test system: Pseudomonas aeruginosa; assay: Inhibition of Pseudomonas aeruginosa OXA-24/40 assessed as potentiation of piperacillin-induced antibacterial activity at 4 ug/ml by CLSI based broth microdilution method (reference value: > […] ug/ml)
[27] = test system: Escherichia coli; assay: Potentiation of cefepime-induced antibacterial activity against Escherichia coli at 8 ug/ml by CLSI based microdilution method; format: functional
[28] = test system: Klebsiella pneumoniae; assay: Potentiation of cefepime-induced antibacterial activity against Klebsiella pneumoniae at 8 ug/ml by CLSI based microdilution method; format: functional
[29] = test system: Staphylococcus; assay: Antibacterial activity against methicillin-sensitive Staphylococcus; format: functional
[30] = Inhibition of AmpC beta-lactamase (unknown origin) by Cheng-Prusoff equation analysis; parameters: species or system Bacteria
[31] = test system: Escherichia coli; assay: Antibacterial activity against Escherichia coli harboring beta-lactamase infected in mouse relative to control; format: functional
[32] = test system: Escherichia coli; assay: Inhibition of Escherichia coli PBP2 assessed as ratio of Kinact to Ki by SDS-PAGE based fluorescence assay
[33] = test system: Acinetobacter baumannii; assay: Inhibition of Acinetobacter baumannii PBP2 assessed as ratio of Kinact to Ki by SDS-PAGE based fluorescence assay

Beta-lactamase TEM, sequence (P62593 whole entry): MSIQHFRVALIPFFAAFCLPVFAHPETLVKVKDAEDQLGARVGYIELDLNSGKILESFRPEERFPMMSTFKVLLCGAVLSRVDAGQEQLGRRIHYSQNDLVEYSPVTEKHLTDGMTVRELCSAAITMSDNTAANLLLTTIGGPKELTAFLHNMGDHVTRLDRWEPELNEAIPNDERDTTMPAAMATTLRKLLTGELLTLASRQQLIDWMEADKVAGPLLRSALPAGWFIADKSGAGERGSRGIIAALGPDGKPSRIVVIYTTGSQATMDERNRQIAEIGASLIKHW
Beta-lactamase (Acinetobacter baumannii), Q8RLA6 [Y112A,M223A], sequence (Q8RLA6 whole entry Y112A/M223A): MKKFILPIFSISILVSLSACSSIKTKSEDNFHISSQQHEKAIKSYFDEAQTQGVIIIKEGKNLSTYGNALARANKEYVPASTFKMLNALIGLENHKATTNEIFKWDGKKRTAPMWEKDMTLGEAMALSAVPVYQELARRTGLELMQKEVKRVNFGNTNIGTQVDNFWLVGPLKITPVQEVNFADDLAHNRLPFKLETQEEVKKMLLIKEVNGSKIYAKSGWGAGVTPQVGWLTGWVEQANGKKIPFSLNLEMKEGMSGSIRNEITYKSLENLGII
Beta-lactamase (Acinetobacter baumannii), Q8RLA6 [Y112A], sequence (Q8RLA6 whole entry Y112A): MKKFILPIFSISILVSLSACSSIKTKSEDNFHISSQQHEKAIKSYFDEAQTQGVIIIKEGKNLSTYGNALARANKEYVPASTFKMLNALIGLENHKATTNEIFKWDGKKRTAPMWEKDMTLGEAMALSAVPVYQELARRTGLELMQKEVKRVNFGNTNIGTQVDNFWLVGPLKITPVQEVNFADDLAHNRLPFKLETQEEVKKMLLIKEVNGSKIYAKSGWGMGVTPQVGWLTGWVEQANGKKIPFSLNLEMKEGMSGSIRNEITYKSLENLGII

With `N#C[C@@H]1CC[C@@H]2CN1C(=O)N2OS(=O)(=O)O` the MIC [1] was under 2 µg/mL, the MIC [2] was under 2 µg/mL and the MIC [3] was under 2 µg/mL. It also gave an MIC [4] of under 2 µg/mL, an MIC [5] of under 2 µg/mL and an MIC [6] of under 2 µg/mL.
With `N[C@H](CN[C@H](CN[C@@H](CC(=O)O)C(=O)O)C(=O)O)C(=O)O` the IC50 [7] was 10.2 µM.
For `C[C@]1(COC(=O)Cc2ccc(O)c(O)c2)[C@H](C(=O)O)N2C(=O)/C(=C/c3ccccn3)[C@H]2S1(=O)=O`, the MIC [8] was 1 µg/mL, the MIC [9] was 1 µg/mL and the inhibition [10] was 100%. The inhibition [11] was 100%, the inhibition [12] was 100% and the Ki [13] was 0.7 µM. The Activity [14] was 4 log10CFU/g, the Activity [15] was 1.7 log10CFU/g and the Activity [16] was 2.5 log10CFU/g. The Activity [17] was 4.5 log10CFU/g.
With `CC(=O)N[C@@H](Cc1cccc(C(=O)O)c1)B(O)O` the Ki [18] was 0.11 µM.
`C[C@]1(Cn2ccnn2)[C@H](C(=O)O)N2C(=O)C[C@H]2S1(=O)=O` showed an MIC [8] of 16 µg/mL and an MIC [9] of 16 µg/mL.
Molecule `CO/N=C(\C(=O)N[C@@H]1C(=O)N2C(C(=O)[O-])=C(C[N+]3(C)CCCC3)CS[C@H]12)c1csc(N)n1` [CEFEPIME] has an MIC90 [19] of over 64 µg/mL and an MIC90 [20] of 16 µg/mL (≈ 33.3 µM).
`N[C@@H](CN[C@@H](CN[C@@H](CC(=O)O)C(=O)O)C(=O)O)C(=O)O` gave an IC50 [7] of 9.3 µM.
Molecule `CCN1CCN(C(=O)N[C@@H](C(=O)N[C@@H]2C(=O)N3[C@@H]2SC(C)(C)[C@@H]3C(=O)O)c2ccccc2)C(=O)C1=O` [PIPERACILLIN] has an MIC [21] of over 64 µg/mL, an MIC [22] of over 64 µg/mL and an MIC [23] of over 64 µg/mL.
Work on `CC1=C[C@@H](CO)N2C[C@@H]1N(OS(=O)(=O)O)C2=O` yielded an MIC [24] of 8 µg/mL, an MIC [25] of 32 µg/mL and an MIC [26] of 64 µg/mL.
`Cn1cc[n+](C[C@@]2(C)[C@H](C(=O)[O-])N3C(=O)C[C@H]3S2(=O)=O)n1` [ENMETAZOBACTAM] showed an MIC90 [27] of 0.5 µg/mL and an MIC90 [28] of 1 µg/mL.
Molecule `N[C@@H](CN[C@H](CN[C@@H](CC(=O)O)C(=O)O)C(=O)O)C(=O)O` has an IC50 [7] of 12.5 µM.
In the case of `Cn1cc(/C=C2/C(=O)N3C(C(=O)O)=CS[C@H]23)nn1`, the MIC [29] is reported as 1 µg/mL (≈ 3.78 µM).
`C=C(C)C1=C[C@@H](COC)N2C[C@@H]1N(OS(=O)(=O)O)C2=O` gave an MIC [24] of over 64 µg/mL, an MIC [25] of over 64 µg/mL and an MIC [26] of over 64 µg/mL.
For `O=C(NCB(O)O)S(=O)(=O)c1cc(-c2nnn[nH]2)cc(C(F)(F)F)c1`, the Ki [30] was 50 pM.
`CC1=C[C@@H](C#N)N2C[C@@H]1N(OS(=O)(=O)O)C2=O` showed an MIC [24] of 64 µg/mL, an MIC [25] of over 64 µg/mL and an MIC [26] of 8 µg/mL.
For `O=C(NCB(O)O)S(=O)(=O)c1ccnc(-c2nnn[nH]2)c1`, the Ki [30] was 800 pM and the Activity [31] was 65%.
Molecule `NC(=O)[C@@H]1CC[C@@H]2CN1C(=O)N2OS(=O)(=O)O` has an MIC [24] of 8 µg/mL, an MIC [25] of 8 µg/mL and an MIC [26] of 64 µg/mL.
`CC1=C[C@@H](C(N)=O)N2C[C@@H]1N(OS(=O)(=O)O)C2=O` gave an MIC [24] of 4 µg/mL, an MIC [25] of 8 µg/mL and an MIC [26] of 16 µg/mL.
For `CC1=C[C@@H]2CN(C(=O)N2OS(=O)(=O)O)[C@@H]1C(N)=O`, the Ratio [32] was 1 ×10⁴ /M/s, the Ratio [33] was 1 ×10³ /M/s and the MIC [24] was 4 µg/mL. For the same molecule, the MIC [25] was 2 µg/mL and the MIC [26] was 8 µg/mL.
Molecule `O=C(NCB(O)O)S(=O)(=O)c1cc(Cl)cc(-c2nnn[nH]2)c1` has a Ki [30] of 200 pM.
For `N[C@H](CN[C@@H](CN[C@@H](CC(=O)O)C(=O)O)C(=O)O)C(=O)O`, the IC50 [7] was 11.9 µM.
For `N[C@@H](CN[C@@H](CN[C@H](CC(=O)O)C(=O)O)C(=O)O)C(=O)O`, the IC50 [7] was 11.6 µM.

Reference: ChEMBL document CHEMBL4402541, “β-Lactamase Inhibitors To Restore the Efficacy of Antibiotics against Superbugs” (J Med Chem, 2020)
